This experiment deals with T1, Olfactory receptor class A-like protein 1 (Zebrafish, UniProt A0A0R4IM31).
T1 sequence (A0A0R4IM31 whole entry): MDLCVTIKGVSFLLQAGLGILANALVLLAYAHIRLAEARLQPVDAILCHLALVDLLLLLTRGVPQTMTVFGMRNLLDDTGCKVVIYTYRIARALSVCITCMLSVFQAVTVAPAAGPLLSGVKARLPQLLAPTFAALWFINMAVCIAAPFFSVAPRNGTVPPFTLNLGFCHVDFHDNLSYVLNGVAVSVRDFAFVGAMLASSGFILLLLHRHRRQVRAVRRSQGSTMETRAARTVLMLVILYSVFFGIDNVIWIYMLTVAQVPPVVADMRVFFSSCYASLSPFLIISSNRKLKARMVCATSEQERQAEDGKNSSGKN
In words: Functional Calcium Imaging Assay. To be noted: pH 7.4. The method, then: Briefly, HEK 293T cells stably expressing the G protein-chimera Gα16gust44 were seeded onto 96-well plates coated with 10 μg/ml of poly-D-lysine. The next day cells were transiently transfected with ORA1, ORA2, or human bitter taste receptor TAS2R16 constructs using Lipofectamine 2000 (Invitrogen). After 24 h the cells were washed with buffer C1 (130 mM NaCl, 5 mM KCl, 10 mM Hepes, pH 7.4, 2 mM CaCl2, 10 mM glucose), and loaded with the calcium-responsive dye Fluo-4 AM in the presence of 1 mM probenecide, an inhibitor of […]. To remove excessive fluorescence dye, cells were washed three times with buffer C1 and transferred into a fluorometric imaging plate reader (FLIPR, Molecular Devices) for measurement. Test substances were dissolved in C1 buffer and the changes in fluorescence after application of test substances were monitored.

As usually defined, the EC50 is the midpoint of the concentration-response curve. For the compound `O=C(O)Cc1ccc(Cl)cc1` [2-(4-chlorophenyl)acetic acid], the EC50 is 16.6 µM.

As for `O=C(O)Cc1ccc(O)cc1` [2-(4-hydroxyphenyl)acetic acid], the EC50 stood at 1.9 µM. Take `O=C(O)Cc1ccc2c(c1)OCO2` [3,4-Methylenedioxyphenylacetic acid]: the 50% effective concentration (EC50) was determined as 16 µM. As to `O=C(O)CCc1ccc(O)cc1` [3-(4-Hydroxyphenyl)-propionic acid], the EC50 was 192 µM. As for `Nc1ccc(CC(=O)O)cc1` [4-Aminophenylacetic acid], the EC50 came out at 91.7 µM. Next, `COc1ccc(CC(=O)O)cc1` [4-Methoxyphenylacetic acid]: 16.5 µM; `Cc1ccc(C(=O)CC(=O)O)cc1` [4-Toloylacetic acid]: 14.8 µM; `CC(C(=O)O)c1ccc(O)cc1` (stereo not given) [Methyl-4-hydroxyphenylacetic acid]: 221 µM. Take `O=C(O)Cc1ccccc1` [Phenylacetate, XIX]: the 50% effective concentration (EC50) turned out to be 30.5 µM. As to `O=C(O)Cc1ccc(O)c(O)c1` [SMR000326727], the EC50 is 22.8 µM.

These data come from BindingDB's records for doi:10.1074/jbc.M114.573162 (German Institute of Human Nutrition Potsdam-Rehbruecke, 2014).
